US9334246B2, “Substituted triazines for malaria treatment and chemoprophylaxis” (The United States of America, as represented by the …, priority 2013, dated 2016)

Experiments:
P. falciparum D6 = test: Malaria SYBR Green Fluorescence Assay, D6 strain; assay type: cell-based, Plasmodium falciparum; details: for D6: SYBR Green Assay
P. falciparum W2 = test: Malaria SYBR Green Fluorescence Assay, W2 strain; assay type: cell-based, Plasmodium falciparum; details: for W2: SYBR Green Assay
P. falciparum C235 = test: Malaria SYBR Green Fluorescence Assay, C235 strain; assay type: cell-based, Plasmodium falciparum; details: for C235: SYBR Green Assay
[1] = target: hERG potassium ion channel (Homo sapiens, UniProt Q12809); test: hERG patch clamp assay (% inhibition at 10 μM); details: for hERG (% inhibition): 10 μM
Sequence of hERG potassium ion channel (Q12809 whole entry): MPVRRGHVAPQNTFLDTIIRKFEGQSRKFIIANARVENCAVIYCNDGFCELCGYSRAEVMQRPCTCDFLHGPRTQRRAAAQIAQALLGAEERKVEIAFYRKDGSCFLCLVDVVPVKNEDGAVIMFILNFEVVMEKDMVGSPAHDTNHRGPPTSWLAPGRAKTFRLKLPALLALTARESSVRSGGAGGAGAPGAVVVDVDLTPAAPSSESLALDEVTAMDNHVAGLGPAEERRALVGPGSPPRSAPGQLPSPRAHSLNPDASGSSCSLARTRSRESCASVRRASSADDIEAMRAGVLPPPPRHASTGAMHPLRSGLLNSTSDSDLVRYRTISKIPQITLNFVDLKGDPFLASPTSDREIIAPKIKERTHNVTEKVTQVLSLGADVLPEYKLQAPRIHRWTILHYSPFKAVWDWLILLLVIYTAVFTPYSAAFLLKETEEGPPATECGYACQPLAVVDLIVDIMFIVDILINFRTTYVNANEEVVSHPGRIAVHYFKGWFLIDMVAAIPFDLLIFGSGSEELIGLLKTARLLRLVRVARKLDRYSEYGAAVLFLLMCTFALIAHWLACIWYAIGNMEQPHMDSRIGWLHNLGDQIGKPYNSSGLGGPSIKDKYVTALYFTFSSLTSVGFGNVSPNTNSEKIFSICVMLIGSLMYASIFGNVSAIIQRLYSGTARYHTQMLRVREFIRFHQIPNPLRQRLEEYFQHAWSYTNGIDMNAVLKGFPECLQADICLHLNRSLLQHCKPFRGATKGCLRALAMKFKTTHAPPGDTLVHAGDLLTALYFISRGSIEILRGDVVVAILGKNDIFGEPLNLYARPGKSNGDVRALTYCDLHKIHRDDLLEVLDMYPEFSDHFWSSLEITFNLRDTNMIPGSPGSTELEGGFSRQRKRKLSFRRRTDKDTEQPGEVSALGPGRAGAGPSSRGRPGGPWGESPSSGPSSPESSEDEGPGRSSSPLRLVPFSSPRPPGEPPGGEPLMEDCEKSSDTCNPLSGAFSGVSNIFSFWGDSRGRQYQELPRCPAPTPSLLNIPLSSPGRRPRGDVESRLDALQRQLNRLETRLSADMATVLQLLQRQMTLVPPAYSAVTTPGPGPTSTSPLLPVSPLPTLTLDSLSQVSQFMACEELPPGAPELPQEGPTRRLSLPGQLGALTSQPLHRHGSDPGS

[2] = % inhibition at 10 μM, patch clamp

| Compound | D6 (P. falciparum D6) | W2 (P. falciparum W2) | C235 (P. falciparum C235) | hERG [1, 2] | D6 (SYBR Green Assay IC50) (P. falciparum D6) | W2 (SYBR Green Assay IC50) (P. falciparum W2) | C235 (SYBR Green Assay IC50) (P. falciparum C235) | hERG (% inhibition) [1] | hERG ([1]; hERG activity as % inhibition) |
| --- | --- | --- | --- | --- | --- | --- | --- | --- | --- |
| 4-((4-((pyridin-2-ylmethyl)amino)-6-(trichloromethyl)-1,3,5-triazin-2-yl)amino)phenol [Example 14] | 37 ng/mL | 24 ng/mL | 36 ng/mL | 11% | – | – | – | – | – |
| CCN(CC)CCNc1nc(Cc2ccccc2OC)nc(C(Cl)(Cl)Cl)n1 [Cmpd 70] | 6 ng/mL | 6 ng/mL | 6 ng/mL | 100% | – | – | – | – | – |
| CCN(CC)CCNc1nc(Nc2ccc(OC(F)(F)F)cc2)nc(C(Cl)(Cl)Cl)n1 [Cmpd 374] | – | – | – | – | 0.002 µg/mL | 0.005 µg/mL | 0.005 µg/mL | 109% | – |
| CCN1CCC(CNc2nc(-c3ccc(-c4ccccc4)cc3)nc(C(Cl)(Cl)Cl)n2)CC1 [Cmpd 306] | 54 ng/mL | 30 ng/mL | 87 ng/mL | 38% | – | – | – | – | – |
| Clc1ccc(-c2nc(N3CCOCC3)nc(C(Cl)(Cl)Cl)n2)cc1 [Cmpd 31] | – | – | – | 12% | – | – | – | – | – |
| ClC(Cl)(Cl)c1ccc(-c2nc(NCCc3ccccn3)nc(C(Cl)(Cl)Cl)n2)cc1 [Cmpd 163] | 50 ng/mL | 20 ng/mL | 61 ng/mL | 5% | – | – | – | – | – |
| COc1ccc(Cc2nc(NCCN3CCCC3C)nc(C(Cl)(Cl)Cl)n2)cc1 (stereo not shown) [Cmpd 89] | 805 ng/mL | 718 ng/mL | 991 ng/mL | 50% | – | – | – | – | – |
| CCN(CC)CC(C)Nc1nc(Nc2cc(Cl)cc(Cl)c2)nc(n1)C(Cl)(Cl)Cl [Compound 644] | – | – | – | – | 0.131 µg/mL | 0.009 µg/mL | 0.014 µg/mL | 100% | – |
| CCN1CCC(CC1)C(C)Nc2nc(Nc3cc(Cl)cc(Cl)c3)nc(n2)C(Cl)(Cl)Cl [Compound 645] | – | – | – | – | 0.07911 µg/mL | 0.0375 µg/mL | 0.05886 µg/mL | 75% | – |
| CN1CCC(Nc2nc(-c3ccc(S(C)(=O)=O)cc3)nc(C(Cl)(Cl)Cl)n2)CC1 [Cmpd 77] | 92 ng/mL | 53 ng/mL | 131 ng/mL | 72% | – | – | – | – | – |
| ClC(Cl)(Cl)c1nc(nc(n1)c2ccccc2)N3CC4CC3CN4 [Compound 720] | 56 ng/mL | 35 ng/mL | 89 ng/mL | – | – | – | – | – | 84% |
| CCN(CC)CC(C)Nc1nc(Nc2ccc(Cl)c(Cl)c2)nc(n1)C(Cl)(Cl)Cl [Compound 642] | – | – | – | – | 0.005 µg/mL | 0.003 µg/mL | 0.013 µg/mL | 76% | – |
| CN1CCN(c2nc(-c3ccc(-c4ccccc4)cc3)nc(C(Cl)(Cl)Cl)n2)CC1 [Cmpd 298] | 62 ng/mL | 33 ng/mL | 87 ng/mL | 10% | – | – | – | – | – |
| tert-butyl 5-(4-(4-chlorophenyl)-6-(trichloromethyl)-1,3,5-triazin-2-yl)-2,5-diazabicyclo[2.2.1]heptane-2-carboxylate [Example 6] | 33 ng/mL | 26 ng/mL | 44 ng/mL | 96% | – | – | – | – | – |
| CCN1CCCC(Nc2nc(-c3ccc(C)cc3)nc(C(Cl)(Cl)Cl)n2)C1 (stereo not shown) [Cmpd 80] | 135 ng/mL | 90 ng/mL | 129 ng/mL | 97% | – | – | – | – | – |
| CC(CN(C)C)Nc1nc(Nc2cc(Cl)cc(Cl)c2)nc(n1)C(Cl)(Cl)Cl [Compound 639] | – | – | – | – | 0.013 µg/mL | 0.007 µg/mL | 0.009 µg/mL | 25% | – |
| COc1ccccc1Nc1nc(N2CCN(C)CC2)nc(C(Cl)(Cl)Cl)n1 [Cmpd 65] | 32 ng/mL | 32 ng/mL | 31 ng/mL | 83% | – | – | – | – | – |
| CN1CCCN(c2nc(-c3cc(Cl)cc(Cl)c3)nc(C(Cl)(Cl)Cl)n2)CC1 [Cmpd 205] | 23 ng/mL | 7 ng/mL | 26 ng/mL | 20% | – | – | – | – | – |
| CC(C)(C)OC(=O)N1CC2CC1CN2c1nc(-c2ccc(S(C)(=O)=O)cc2)nc(C(Cl)(Cl)Cl)n1 (stereo not shown) [Compound 715, CC(C)(C)OC(═O)N1CC2CC1CN2c3nc(nc(n3)C(Cl)(Cl)Cl)c4ccc(cc4)S(═O)(═O)C] | 126 ng/mL | 63 ng/mL | 185 ng/mL | – | – | – | – | – | 19% |
| CCC(N)(CC)CNc1nc(-c2ccc3ccccc3c2)nc(C(Cl)(Cl)Cl)n1 [Cmpd 377] | – | – | – | – | 0.002 µg/mL | 0.006 µg/mL | 0.008 µg/mL | 25% | – |
| CC(C)(C)c1ccc(-c2nc(N3CCNCC3)nc(C(Cl)(Cl)Cl)n2)cc1 [Cmpd 161] | 88 ng/mL | 32 ng/mL | 98 ng/mL | 15% | – | – | – | – | – |
| Cc1cc(CNc2nc(nc(n2)C(Cl)(Cl)Cl)c3ccc(Cl)c(Cl)c3)n(C)n1 [Compound 708] | 319.7 ng/mL | 75.2 ng/mL | 221 ng/mL | – | – | – | – | – | 12.2% |
| Fc1ccc(-c2nc(NCCCN3CCCC3)nc(C(Cl)(Cl)Cl)n2)cc1 [Cmpd 381] | – | – | – | – | 0.005 µg/mL | 0.009 µg/mL | 0.014 µg/mL | 106% | – |
| NC1(CNc2nc(-c3cccc(C(F)(F)F)c3)nc(C(Cl)(Cl)Cl)n2)CCOCC1 [Cmpd 315] | 3 ng/mL | 1 ng/mL | 8 ng/mL | 36% | – | – | – | – | – |

| Compound | D6 (P. falciparum D6) | W2 (P. falciparum W2) | C235 (P. falciparum C235) | hERG [1, 2] | D6 (SYBR Green Assay IC50) (P. falciparum D6) | W2 (SYBR Green Assay IC50) (P. falciparum W2) | C235 (SYBR Green Assay IC50) (P. falciparum C235) | hERG (% inhibition) [1] | hERG ([1]; hERG activity as % inhibition) |
| --- | --- | --- | --- | --- | --- | --- | --- | --- | --- |
| CN(C)C1CCN(c2nc(-c3ccc(Cl)c(Cl)c3)nc(C(Cl)(Cl)Cl)n2)C1 (stereo not shown) [Cmpd 20] | – | – | – | 50% | – | – | – | – | – |
| CSc1ccc(-c2nc(NCCN3CCCC3)nc(C(Cl)(Cl)Cl)n2)cc1 [Cmpd 47] | – | – | – | 95% | – | – | – | – | – |
| CN1CCN(c2nc(-c3ccc(Cl)c(Cl)c3)nc(C(Cl)(Cl)Cl)n2)CC1 [Cmpd 22] | – | – | – | 33% | – | – | – | – | – |
| CC(C)N1CCC(CNc2nc(-c3cccc(C(F)(F)F)c3)nc(C(Cl)(Cl)Cl)n2)CC1 [Cmpd 489] | – | – | – | – | 0.014 µg/mL | 0.008 µg/mL | 0.01 µg/mL | – | – |
| NC1(CNc2nc(-c3ccc(Cl)c(Cl)c3)nc(C(Cl)(Cl)Cl)n2)CCCCC1 [Compound 670, NC1(CNC2═NC(═NC(═N2)C2═CC(Cl)═C(Cl)C═C2)C(Cl)(Cl)Cl)CCCCC1] | 22 ng/mL | 20 ng/mL | 38 ng/mL | – | – | – | – | – | – |
| ClC(Cl)(Cl)c1nc(NCCN2CCCC2)nc(-c2ccccc2)n1 [Cmpd 405] | – | – | – | – | 0.027 µg/mL | 0.016 µg/mL | 0.045 µg/mL | – | – |
| COc1ccc(-c2nc(NCCc3ccccn3)nc(C(Cl)(Cl)Cl)n2)cc1 [Cmpd 185] | 185 ng/mL | 63 ng/mL | 244 ng/mL | – | – | – | – | – | – |
| CC(C)N1CCC(CNc2nc(-c3ccccc3[N+](=O)[O-])nc(C(Cl)(Cl)Cl)n2)CC1 [Cmpd 497] | – | – | – | – | 0.913 µg/mL | 0.176 µg/mL | 0.469 µg/mL | – | – |
| CC(C)(C)c1ccc(cc1)c2nc(NCC(C)(C)CN3CCCCCC3)nc(n2)C(Cl)(Cl)Cl [Compound 737] | 241.3 ng/mL | 101.3 ng/mL | 244.2 ng/mL | – | – | – | – | – | – |
| CS(═O)(═O)c1ccc(cc1)c2nc(Nc3ccc(cc3)n4cccn4)nc(n2)C(Cl)(Cl)Cl [Compound 689] | 94 ng/mL | 58 ng/mL | 171 ng/mL | – | – | – | – | – | – |
| COc1ccc(-c2nc(NCC3CCN(C)CC3)nc(C(Cl)(Cl)Cl)n2)cc1OC [Cmpd 520] | – | – | – | – | 0.082 µg/mL | 0.019 µg/mL | 0.045 µg/mL | – | – |
| OCCN1CCN(c2nc(-c3ccc4ccccc4c3)nc(C(Cl)(Cl)Cl)n2)CC1 [Cmpd 305] | 35 ng/mL | 23 ng/mL | 68 ng/mL | – | – | – | – | – | – |
| NC1(CNc2nc(Nc3ccc(OC(F)(F)F)cc3)nc(C(Cl)(Cl)Cl)n2)CCOCC1 [Cmpd 303] | 43 ng/mL | 61 ng/mL | 65 ng/mL | – | – | – | – | – | – |
| CCN1CCC(CNc2nc(-c3ccccc3-c3ccc(C)cc3)nc(C(Cl)(Cl)Cl)n2)CC1 [Cmpd 259] | 162 ng/mL | 105 ng/mL | 113 ng/mL | – | – | – | – | – | – |
| ClC(Cl)(Cl)c1nc(NCCCN2CCCC2)nc(-c2ccccc2)n1 [Cmpd 406] | – | – | – | – | 0.077 µg/mL | 0.035 µg/mL | 0.089 µg/mL | – | – |
| CCN1CCC(CNc2nc(Cc3ccccc3OC)nc(C(Cl)(Cl)Cl)n2)CC1 [Cmpd 293] | 48 ng/mL | 13 ng/mL | 70 ng/mL | – | – | – | – | – | – |
| Clc1ccc(-c2nc(N3CCNCC3)nc(C(Cl)(Cl)Cl)n2)cc1Cl [Cmpd 25] | – | – | – | 10% | – | – | – | – | – |
| Cc1ccc(-c2nc(N3CCCN(CCO)CC3)nc(C(Cl)(Cl)Cl)n2)cc1 [Cmpd 453] | – | – | – | – | 0.173 µg/mL | 0.043 µg/mL | 0.112 µg/mL | – | – |
| CSc1ccc(-c2nc(N3CCN(CCO)CC3)nc(C(Cl)(Cl)Cl)n2)cc1 [Cmpd 309] | 188 ng/mL | 122 ng/mL | 438 ng/mL | – | – | – | – | – | – |
| Clc1ccc(-c2nc(NCc3ccccn3)nc(C(Cl)(Cl)Cl)n2)cc1 [Cmpd 141] | 556 ng/mL | 237 ng/mL | 652 ng/mL | – | – | – | – | – | – |
| COc1ccc(Nc2nc(NC3CCN(C)CC3)nc(C(Cl)(Cl)Cl)n2)cn1 [Cmpd 349] | 124 ng/mL | 129 ng/mL | 296 ng/mL | – | – | – | – | – | – |
| COc1ccc(-c2nc(NCCc3cccnc3)nc(C(Cl)(Cl)Cl)n2)cc1 [Cmpd 174] | 430 ng/mL | 181 ng/mL | 641 ng/mL | – | – | – | – | – | – |
| OCCN1CCN(c2nc(-c3ccc(Cl)c(Cl)c3)nc(C(Cl)(Cl)Cl)n2)CC1 [Cmpd 304] | 80 ng/mL | 41 ng/mL | 201 ng/mL | – | – | – | – | – | – |
